Earlier results as cited in US20040087576A1, “Antimnemonic therapy for hypermemory syndromes” (priority 2002, published 2004).

Assays:
[1] = system: reconsolidation of retrieved memories; details: in vivo
[2] = system: conditioned fear; details: in vivo
[3] = system: rat fear-conditioning; details: rats
[4] = patients; doses of 100-500 mg/day
[5] = system: PTSD symptoms; details: patients; 10-day course, 40 mg four times daily, versus placebo; assessed 3 months after the trauma
[6] = system: emotion-related memory; details: rats; post-training administration

NC(CCCP(=O)(O)O)C(=O)O (stereo not drawn) [AP5]
amnesia by blocking the reconsolidation of retrieved memories [1]: induce amnesia by blocking the reconsolidation of retrieved memories

N[C@@H]1CONC1=O [D-cycloserine]
extinction of conditioned fear [2]: facilitate the extinction of conditioned fear

C[C@]12N[C@H](Cc3ccccc31)c1ccccc12 [MK-801]
amnesia by blocking the reconsolidation of retrieved memories [1]: induce amnesia by blocking the reconsolidation of retrieved memories

COc1ccc(C[C@H]2NC[C@H](O)[C@H]2OC(C)=O)cc1 [anisomycin]
reconsolidation of reactivated memories ([3]; cue 1 or 14 days after conditioning, drug immediately after cue, tested 24 hours later): blocked reconsolidation of reactivated memories
fear response to the cue ([3]; cue presented a further twenty four hours after treatment): did not display the fear response

CC12CC3CC(C)(C1)CC(N)(C3)C2 [memantine]
tolerability [4]: well tolerated

CC(C)NCC(O)COc1cccc2ccccc12 (stereo not drawn) [propranolol]
ratings of PTSD symptoms [5]: slightly, but significantly, lower
amnesia by blocking the reconsolidation of retrieved memories [1]: induce amnesia by blocking the reconsolidation of retrieved memories
consolidation of emotion-related memory [6]: blocked the consolidation of emotion-related memory
